The term IC50 denotes the point on the concentration scale where inhibition reaches its midpoint. In general, inhibition refers to how much of the control response was suppressed.

The target in data set [1] is T1, Kir2.1 (Mus musculus, UniProt P35561).
T1 sequence (P35561 1-428): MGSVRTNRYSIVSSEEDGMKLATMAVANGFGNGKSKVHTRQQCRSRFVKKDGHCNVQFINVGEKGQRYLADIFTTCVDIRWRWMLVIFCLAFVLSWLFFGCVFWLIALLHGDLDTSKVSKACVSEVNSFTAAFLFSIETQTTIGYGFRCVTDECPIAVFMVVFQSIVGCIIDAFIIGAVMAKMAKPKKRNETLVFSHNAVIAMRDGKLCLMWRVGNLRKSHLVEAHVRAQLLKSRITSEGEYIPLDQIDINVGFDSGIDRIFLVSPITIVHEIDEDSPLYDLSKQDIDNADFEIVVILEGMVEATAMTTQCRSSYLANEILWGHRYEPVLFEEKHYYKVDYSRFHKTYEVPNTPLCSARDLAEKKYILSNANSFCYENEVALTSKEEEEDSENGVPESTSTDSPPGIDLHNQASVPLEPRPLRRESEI
Nature of the data set: whole cell.

The target of data set [2] is T1, Kir2.1. Nature of the data set: inside-out patch, compound applied from intracellular side. To be noted: IC50 Kir2.1, inside-out patch, pH 6.5, applied from intracellular side. The class given is cell-based.
Data set [3] has as its target T2, Kir1.1 (Rattus norvegicus, UniProt P35560).
T2 sequence (P35560 1-391): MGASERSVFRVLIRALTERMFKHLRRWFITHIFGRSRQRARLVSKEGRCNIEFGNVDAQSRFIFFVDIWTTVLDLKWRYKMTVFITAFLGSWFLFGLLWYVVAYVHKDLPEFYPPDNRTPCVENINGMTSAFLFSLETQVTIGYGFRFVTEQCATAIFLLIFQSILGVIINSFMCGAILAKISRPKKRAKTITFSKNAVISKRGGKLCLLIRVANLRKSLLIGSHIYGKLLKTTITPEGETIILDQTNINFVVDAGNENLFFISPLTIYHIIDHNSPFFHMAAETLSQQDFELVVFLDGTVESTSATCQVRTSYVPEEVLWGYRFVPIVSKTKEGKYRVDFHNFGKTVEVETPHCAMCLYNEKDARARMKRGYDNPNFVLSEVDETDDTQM
The experiment in a line: whole cell patch clamp, Kir1.1. The class given is cell-based. A general note: In patch-clamp work, channel activity is measured electrically.

Data set [4] concerns the target T3, C25 chimera (Mus musculus, UniProt P35561, A121P/A131S/A173S/C101L/C149F/C169V/C89I/D114R/D152E/D172N/DEL116-120/E125N/E153Q/F103W/F129M/F98L/G111K/I106V/I137L/I156T/I175M/I176C/I87V/INS113PEFYPPDN/L105V/L108Y/L109V/L90T/L94G/L97F/M160L/M180L/P155A/S124E/S128G/T141V/V102L/V126I/V158I/V161L/V162I/V167L/V179I/V86T/V93L/W104Y).
T3 sequence (P35561 with tags, fused parts or gaps V86T/I87V/C89I/L90T/V93L/L94G/L97F/F98L/C101L/V102L/F103W/W104Y/L105V/I106V/L108Y/L109V/G111K/INS113PEFYPPDN/D114R/DEL116-120/A121P/S124E/E125N/V126I/S128G/F129M/A131S/I137L/T141V/C149F/D152E/E153Q/P155A/I156T/V158I/M160L/V161L/V162I/V167L/C169V/D172N/A173S/I175M/I176C/V179I/M180L): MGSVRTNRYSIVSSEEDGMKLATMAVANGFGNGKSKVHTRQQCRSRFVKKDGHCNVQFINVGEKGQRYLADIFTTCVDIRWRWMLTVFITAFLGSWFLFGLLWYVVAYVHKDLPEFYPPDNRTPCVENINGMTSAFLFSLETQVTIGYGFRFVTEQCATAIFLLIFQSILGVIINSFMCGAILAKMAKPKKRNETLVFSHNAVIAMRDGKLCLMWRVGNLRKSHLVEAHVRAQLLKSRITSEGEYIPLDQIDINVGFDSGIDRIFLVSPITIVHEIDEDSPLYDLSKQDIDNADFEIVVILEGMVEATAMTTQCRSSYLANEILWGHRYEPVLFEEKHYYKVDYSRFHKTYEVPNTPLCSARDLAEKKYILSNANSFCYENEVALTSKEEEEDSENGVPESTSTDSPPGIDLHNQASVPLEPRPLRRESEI
The experiment in a line: patch clamp, C25 chimera. The class given is cell-based, mouse/rat. The settings on record: for inhibition of C25 current: pH 7.4.

In data set [5] the test system is L-type calcium channels. The experiment in a line: Ricerca Lead Profiling Screen radioligand binding.
The target of data set [6] is N-type calcium channels (Rattus norvegicus, UniProt Q02294). The experiment in a line: Ricerca Lead Profiling Screen radioligand binding.
The target of data set [7] is hERG (Homo sapiens, UniProt Q12809). Nature of the data set: Ricerca Lead Profiling Screen radioligand binding.
Data set [8] in a line: Ricerca Lead Profiling Screen, 68 radioligand binding assays. The settings on record: GPCRs, ion channels and transporters.
Data set [9] deals with 1A2 (Homo sapiens, UniProt P05177).
Data set [10] concerns the target 2D6 (Homo sapiens, UniProt P10635).
For data set [11] the following is noted: PubChem database; cited from earlier work.
The nature of data set [12]: protein binding, rat.
A short description of data set [13]: protein binding, human.
Data set [14] addresses 3A4 (Homo sapiens, UniProt P08684). The experiment in a line: CYP450 inhibition assay.
Data set [15] has as its target 2C9 (Homo sapiens, UniProt P11712). The experiment in a line: CYP450 inhibition assay.
Data set [16] can be described thus: intrinsic clearance, rat.
Data set [17] can be described thus: intrinsic clearance, human.
Data set [18] addresses C25 N172D (Mus musculus, UniProt P35561, A121P/A131S/A173S/C101L/C149F/C169V/C89I/D114R/D152E/DEL116-120/E125N/E153Q/F103W/F129M/F98L/G111K/I106V/I137L/I156T/I175M/I176C/I87V/INS113PEFYPPDN/L105V/L108Y/L109V/L90T/L94G/L97F/M160L/M180L/P155A/S124E/S128G/T141V/V102L/V126I/V158I/V161L/V162I/V167L/V179I/V86T/V93L/W104Y). The experiment in a line: patch clamp, C25 N172D mutant. To be noted: pH 7.4.

Data set [19] deals with hKir2.3 (Homo sapiens, UniProt P48050). Nature of the data set: whole cell patch clamp, Kir2.3.
The target in data set [20] is hKir2.6 (Homo sapiens, UniProt B7U540). The experiment in a line: whole cell patch clamp, Kir2.6.
For data set [21], the target named is rKir4.1 (Rattus norvegicus, UniProt P49655). The experiment in a line: whole cell patch clamp, Kir4.1.
The target in data set [22] is hKir7.1 (Homo sapiens, UniProt O60928). The experiment in a line: whole cell patch clamp, Kir7.1. To be noted: IC50 Kir7.1, pH 7.4.
Data set [23] concerns the target Kir2.1 D172N (Mus musculus, UniProt P35561, D172N). Nature of the data set: patch clamp, Kir2.1 D172N mutant.
Data set [24] addresses Kir1.1 N171D (Rattus norvegicus, UniProt P35560, N171D). Nature of the data set: patch clamp, Kir1.1 N171D mutant.
Data set [25] has as its target Kir2.1 D172N/I176C (Mus musculus, UniProt P35561, D172N/I176C). The experiment in a line: patch clamp, Kir2.1 D172N/I176C mutant.
The target of data set [26] is Kir1.1 N171D/C175I (Rattus norvegicus, UniProt P35560, C175I/N171D). Nature of the data set: patch clamp, Kir1.1 N171D/C175I mutant.
The target of data set [27] is C25 N172D/M175I/C176I (Mus musculus, UniProt P35561, A121P/A131S/A173S/C101L/C149F/C169V/C89I/D114R/D152E/DEL116-120/E125N/E153Q/F103W/F129M/F98L/G111K/I106V/I137L/I156T/I87V/INS113PEFYPPDN/L105V/L108Y/L109V/L90T/L94G/L97F/M160L/M180L/P155A/S124E/S128G/T141V/V102L/V126I/V158I/V161L/V162I/V167L/V179I/V86T/V93L/W104Y). The experiment in a line: patch clamp, C25 N172D/M175I/C176I mutant.

Data set [28] deals with KATP channel. The settings on record: read-out: KATP channel IC50; cited from earlier work.
Where [29] appears, read: read-out: IC50 Kir2.1, pH 8.5, manual patch clamp.
The mark [30] stands for this setting: pH 7.4, read-out: inhibition of C25 current.

Structures are written as SMILES. Values joined by “and” are separate entries in the source; they are usually repeats but may differ in a detail not shown here. Identical values can stand only once. “Also recorded” adds a separate entry of the source. Some results are limits rather than exact numbers.

Chain of hKir7.1 (O60928 whole entry): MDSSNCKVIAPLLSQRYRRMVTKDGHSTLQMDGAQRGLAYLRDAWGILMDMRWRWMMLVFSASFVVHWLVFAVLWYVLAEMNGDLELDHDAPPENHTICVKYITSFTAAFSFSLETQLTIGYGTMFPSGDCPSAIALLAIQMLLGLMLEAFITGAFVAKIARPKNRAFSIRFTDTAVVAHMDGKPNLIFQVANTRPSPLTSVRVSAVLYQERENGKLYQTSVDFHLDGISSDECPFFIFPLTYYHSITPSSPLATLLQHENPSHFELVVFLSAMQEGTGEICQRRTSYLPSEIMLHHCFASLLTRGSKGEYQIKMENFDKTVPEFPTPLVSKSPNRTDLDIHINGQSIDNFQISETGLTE
Chain of Kir1.1 N171D/C175I (P35560 whole entry N171D/C175I): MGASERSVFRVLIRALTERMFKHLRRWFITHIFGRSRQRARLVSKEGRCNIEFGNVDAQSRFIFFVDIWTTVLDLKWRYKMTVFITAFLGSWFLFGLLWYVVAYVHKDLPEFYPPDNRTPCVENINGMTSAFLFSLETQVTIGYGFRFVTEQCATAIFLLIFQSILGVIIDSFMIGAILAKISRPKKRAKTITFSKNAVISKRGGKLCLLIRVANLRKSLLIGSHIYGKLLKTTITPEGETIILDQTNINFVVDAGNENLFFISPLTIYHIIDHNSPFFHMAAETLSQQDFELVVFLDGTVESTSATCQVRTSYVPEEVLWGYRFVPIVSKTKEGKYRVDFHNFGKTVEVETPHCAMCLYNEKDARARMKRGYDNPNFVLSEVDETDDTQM
Chain of Kir1.1 N171D (P35560 whole entry N171D): as the sequence (P35560 whole entry N171D/C175I) above, with I175C counted along it
Chain of N-type calcium channels (Q02294 whole entry): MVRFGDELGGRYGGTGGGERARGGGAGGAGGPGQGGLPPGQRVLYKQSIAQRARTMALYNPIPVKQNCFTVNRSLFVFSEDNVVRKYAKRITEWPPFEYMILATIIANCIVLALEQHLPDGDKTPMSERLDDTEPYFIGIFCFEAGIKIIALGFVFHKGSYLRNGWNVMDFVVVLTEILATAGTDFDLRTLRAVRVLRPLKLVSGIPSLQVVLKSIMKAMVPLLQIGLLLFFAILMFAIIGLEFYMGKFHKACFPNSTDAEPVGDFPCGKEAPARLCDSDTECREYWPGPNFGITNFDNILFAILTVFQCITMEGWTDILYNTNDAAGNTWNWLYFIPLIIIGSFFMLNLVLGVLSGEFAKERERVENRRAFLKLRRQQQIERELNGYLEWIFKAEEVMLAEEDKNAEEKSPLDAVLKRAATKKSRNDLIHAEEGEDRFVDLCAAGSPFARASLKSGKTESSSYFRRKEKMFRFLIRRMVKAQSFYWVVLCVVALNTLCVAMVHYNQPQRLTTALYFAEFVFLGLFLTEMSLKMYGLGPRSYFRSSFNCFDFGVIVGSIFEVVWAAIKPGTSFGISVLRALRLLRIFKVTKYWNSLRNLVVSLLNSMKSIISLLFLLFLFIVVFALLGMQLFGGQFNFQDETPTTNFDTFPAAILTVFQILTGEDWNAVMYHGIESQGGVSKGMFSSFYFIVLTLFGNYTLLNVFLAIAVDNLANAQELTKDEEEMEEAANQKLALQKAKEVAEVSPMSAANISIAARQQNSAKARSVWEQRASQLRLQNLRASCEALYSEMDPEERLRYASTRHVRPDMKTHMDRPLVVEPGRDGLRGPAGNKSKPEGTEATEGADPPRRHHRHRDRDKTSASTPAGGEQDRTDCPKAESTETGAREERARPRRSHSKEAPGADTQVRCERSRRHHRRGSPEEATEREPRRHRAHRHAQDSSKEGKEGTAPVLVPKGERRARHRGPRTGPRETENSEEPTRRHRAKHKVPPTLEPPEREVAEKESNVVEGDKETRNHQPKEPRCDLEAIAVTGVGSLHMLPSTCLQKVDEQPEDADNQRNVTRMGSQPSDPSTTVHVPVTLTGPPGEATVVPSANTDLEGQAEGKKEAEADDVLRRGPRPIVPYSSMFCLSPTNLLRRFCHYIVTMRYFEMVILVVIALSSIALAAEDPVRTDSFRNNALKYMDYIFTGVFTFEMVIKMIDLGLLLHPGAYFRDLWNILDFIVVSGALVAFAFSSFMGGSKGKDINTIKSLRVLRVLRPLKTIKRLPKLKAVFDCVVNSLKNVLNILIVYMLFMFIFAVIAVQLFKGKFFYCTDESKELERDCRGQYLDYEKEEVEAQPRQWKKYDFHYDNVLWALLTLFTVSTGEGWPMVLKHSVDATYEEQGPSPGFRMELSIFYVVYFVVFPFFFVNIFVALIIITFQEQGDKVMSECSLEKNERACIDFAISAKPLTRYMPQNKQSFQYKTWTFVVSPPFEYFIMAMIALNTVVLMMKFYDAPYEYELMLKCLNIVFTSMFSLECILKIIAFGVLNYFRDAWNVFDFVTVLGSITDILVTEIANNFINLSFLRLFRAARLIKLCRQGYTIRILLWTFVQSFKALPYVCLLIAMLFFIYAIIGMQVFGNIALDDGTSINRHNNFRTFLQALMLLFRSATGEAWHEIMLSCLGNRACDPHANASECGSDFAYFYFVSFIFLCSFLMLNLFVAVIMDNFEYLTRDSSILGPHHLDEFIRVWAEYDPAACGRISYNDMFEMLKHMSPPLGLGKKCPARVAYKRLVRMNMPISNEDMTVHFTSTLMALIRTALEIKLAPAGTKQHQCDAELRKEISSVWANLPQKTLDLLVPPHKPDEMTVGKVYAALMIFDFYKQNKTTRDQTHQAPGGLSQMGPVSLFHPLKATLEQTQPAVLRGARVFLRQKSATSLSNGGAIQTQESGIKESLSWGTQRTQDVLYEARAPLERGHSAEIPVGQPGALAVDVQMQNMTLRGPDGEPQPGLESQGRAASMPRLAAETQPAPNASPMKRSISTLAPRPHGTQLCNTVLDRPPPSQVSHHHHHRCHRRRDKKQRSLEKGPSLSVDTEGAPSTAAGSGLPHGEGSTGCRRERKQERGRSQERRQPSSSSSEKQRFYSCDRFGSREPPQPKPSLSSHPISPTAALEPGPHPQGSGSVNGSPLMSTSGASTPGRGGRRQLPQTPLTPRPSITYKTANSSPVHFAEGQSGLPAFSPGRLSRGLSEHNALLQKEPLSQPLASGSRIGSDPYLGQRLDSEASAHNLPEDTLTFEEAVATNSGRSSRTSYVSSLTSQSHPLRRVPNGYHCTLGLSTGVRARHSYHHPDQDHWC
Chain of hERG (Q12809 whole entry): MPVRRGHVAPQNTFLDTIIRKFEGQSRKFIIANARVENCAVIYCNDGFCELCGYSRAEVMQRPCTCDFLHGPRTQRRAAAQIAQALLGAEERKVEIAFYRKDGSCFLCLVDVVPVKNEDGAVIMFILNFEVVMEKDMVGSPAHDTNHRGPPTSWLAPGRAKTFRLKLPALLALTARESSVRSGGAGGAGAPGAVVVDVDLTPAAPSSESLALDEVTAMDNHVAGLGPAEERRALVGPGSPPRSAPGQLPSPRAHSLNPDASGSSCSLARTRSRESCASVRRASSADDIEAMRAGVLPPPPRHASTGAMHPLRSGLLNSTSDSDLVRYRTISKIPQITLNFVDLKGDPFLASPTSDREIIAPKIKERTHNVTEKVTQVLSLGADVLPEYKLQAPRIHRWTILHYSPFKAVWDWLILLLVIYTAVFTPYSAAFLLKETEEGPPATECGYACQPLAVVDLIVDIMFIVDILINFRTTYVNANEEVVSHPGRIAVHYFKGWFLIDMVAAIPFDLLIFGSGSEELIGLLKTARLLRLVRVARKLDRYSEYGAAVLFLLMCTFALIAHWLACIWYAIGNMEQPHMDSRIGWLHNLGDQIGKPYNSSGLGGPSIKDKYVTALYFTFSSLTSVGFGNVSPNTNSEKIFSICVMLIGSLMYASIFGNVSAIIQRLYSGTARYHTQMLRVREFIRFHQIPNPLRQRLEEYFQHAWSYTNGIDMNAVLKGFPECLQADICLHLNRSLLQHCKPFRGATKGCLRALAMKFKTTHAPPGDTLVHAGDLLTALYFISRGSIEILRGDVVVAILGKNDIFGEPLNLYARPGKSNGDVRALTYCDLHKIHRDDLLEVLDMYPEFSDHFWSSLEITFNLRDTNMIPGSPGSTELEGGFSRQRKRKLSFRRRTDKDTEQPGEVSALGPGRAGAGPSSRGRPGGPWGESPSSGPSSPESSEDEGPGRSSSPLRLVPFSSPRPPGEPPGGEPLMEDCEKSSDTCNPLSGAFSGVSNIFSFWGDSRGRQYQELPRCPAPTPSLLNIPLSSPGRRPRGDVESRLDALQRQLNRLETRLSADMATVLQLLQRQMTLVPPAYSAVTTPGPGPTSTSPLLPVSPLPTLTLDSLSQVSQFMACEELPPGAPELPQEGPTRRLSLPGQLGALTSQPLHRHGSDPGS
Chain of hKir2.3 (P48050 whole entry): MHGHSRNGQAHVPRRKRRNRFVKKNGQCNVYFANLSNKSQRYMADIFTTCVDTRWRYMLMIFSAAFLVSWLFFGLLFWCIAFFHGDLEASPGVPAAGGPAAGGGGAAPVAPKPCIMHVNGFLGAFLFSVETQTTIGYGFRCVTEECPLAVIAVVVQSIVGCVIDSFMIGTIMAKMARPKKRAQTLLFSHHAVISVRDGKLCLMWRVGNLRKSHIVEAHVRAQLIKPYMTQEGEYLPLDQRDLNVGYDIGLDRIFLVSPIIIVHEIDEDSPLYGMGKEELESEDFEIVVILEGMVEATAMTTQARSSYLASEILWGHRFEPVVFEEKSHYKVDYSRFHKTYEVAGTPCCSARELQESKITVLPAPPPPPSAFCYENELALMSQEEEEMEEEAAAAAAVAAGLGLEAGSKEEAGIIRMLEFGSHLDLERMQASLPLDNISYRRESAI

Regarding `COc1ccc(CNCc2ccc(Cl)cc2Cl)cc1` [13c], the 50% inhibitory concentration (IC50) in data set [1] (setting [29]) came out at 3.89 µM.

`COc1ccc(CNCc2ccc(Cl)cc2)cc1` [14a]: the IC50 in data set [1] (setting [29]) stood at 0.77 µM.

In the case of `COc1ccc(CNCc2cccc(Cl)c2)cc1` [14b], the IC50 in data set [1] (setting [29]) is 1.06 µM.

For `COc1ccc(CNCc2ccc(C(C)(C)C)cc2)cc1` [14d], the half-inhibitory concentration (IC50) in [1] (setting [29]) is 1.39 µM.

Take `COc1ccc(CNCc2ccccc2C)cc1` [14e]: the IC50 in [1] (setting [29]) stood at 5.15 µM.

For the compound `COc1ccc(CNCc2ccc(OC)cc2)cc1` [14g], the half-maximal inhibitory concentration (IC50) in data set [1] (read-out: IC50 Kir2.1, pH 7.4, whole cell, compound applied extracellularly) is 35 µM.

Take `COc1ccc(CNCc2ccccc2Cl)cc1` [14j]: the IC50 in data set [1] (setting [29]) came to 13.9 µM.

On to `COc1ccc(CNCc2cccc3ccccc23)cc1` [ML133, N-(4-methoxybenzyl)-1-(naphthalen-1-yl)methanamine], for which the concentration for half-maximal inhibition (IC50) in data set [2] is 2.6 µM; in [3] (IC50 Kir1.1 (estimated), pH 8.5), 85.5 µM; in data set [3] (IC50 Kir1.1, pH 7.4) it was > 300 µM; in data set [9] it was 3.3 µM; in [10], 0.13 µM; in [14] it was > 30 µM. In addition, the IC50 in data set [15] was > 30 µM; in [18] (IC50 C25 N172D), 75 µM and 75.2 µM; in data set [19], 4 µM; in data set [20], 2.8 µM; in data set [21] it was 76 µM; in data set [22] it was 33 µM and 32.9 µM. The IC50 in data set [23] (IC50 Kir2.1 D172N, pH 7.4) is 15 µM and 15.4 µM; in [24] it was 83.6 µM; in data set [25] (IC50 Kir2.1 D172N/I176C, pH 7.4) it was 45 µM and 43.6 µM; in [26], 64 µM; in data set [27], 5.8 µM; in [1] (IC50 Kir2.1, pH 6.5, whole cell) it was 10 µM. The compound also displayed an IC50 in data set [1] (IC50 Kir2.1, pH 8.5, manual patch clamp) of 0.29 µM. In addition, in data set [3] (pH 7.4, up to 300 μM), the “effect on Kir1.1 current” value was “essentially insensitive; also recorded: not inhibited”. The “inhibition of C25 current” value is given as “resistant” in [4] (30 μM) and “slightly inhibited” in data set [4] (100 μM). Moreover, the inhibition at 30 µM in [4] (setting [30]) was < 20%. Further, the inhibition at 100 µM in data set [4] (setting [30]) was ~30%. Also, in data set [5], the “activity at L-type calcium channels” value is “inactive”. The “activity at N-type calcium channels” value in [6] is “inactive”. The “activity at hERG” value in [7] is “inactive”. The “ancillary pharmacology in 68-assay radioligand binding panel” value in data set [8] was “clean ancillary pharmacology; also recorded: clean profile”. The “activity in MLPCN HTS assays not based on Kir2.1” value in data set [11] was “inactive in all but two of 213 MLPCN HTS assays”. Also, the protein bound in data set [12] and in data set [13] was > 99% in each case. Also, the intrinsic clearance result in [16] and in data set [17] was “high intrinsic clearance” in each case. In [18], the “Hill coefficient (NH) C25 N172D” value was found to be 2.2. Besides, the “Hill coefficient (NH) Kir2.1 D172N” value in [23] was determined as 1.3. Besides, in data set [24], the “Hill coefficient (NH) Kir1.1 N171D” value amounted to 1.6. Further, the “Hill coefficient (NH) Kir2.1 D172N/I176C” value in data set [25] was 1.8. In data set [26], the “Hill coefficient (NH) Kir1.1 N171D/C175I” value turned out to be 2.3. Also, in [27] (pH 7.4), the “Hill coefficient (NH) C25 triple mutant” value is 1.1. Further, the “effect on Kir2.1 currents” value in data set [1] (3 μM, pH 6.5, 20 minute incubation) is “no significant effect”. Moreover, the “time to complete inhibition of Kir2.1” value in [1] (3 μM, pH 8.5) was ≤ 5 min. For the same compound, in data set [1] (3 μM, pH 8.5), the “wash out of compound effects” value was “approximately 10 minutes”. Further, the “Hill coefficient (NH) Kir2.1” value was 1.8 in data set [1] (pH 6.5), 1.7 in data set [1] (pH 7.4) and 4.0 in data set [1] (pH 8.5).

For the compound `[Ba+2]` [barium, reference compound], in [3] (5 mM), the “inhibition of Kir1.1” value is listed as “completely inhibited”. For the same compound, the “inhibition of Kir1.1 current” value in [3] (at the end of the recording) was “over 85%”.

Turning to `COc1ccc(Cl)cc1C(=O)NCCc1ccc(S(=O)(=O)NC(=O)NC2CCCCC2)cc1` [glibenclamide], the IC50 in [28] is […].
